In patent US20110112164A1, “NOVEL POLYMORPHS AND PROCESSES FOR THEIR PREPARATION” (Generics (UK) Limited, priority 2008, published 2011):
Where two headings read alike, the source gives them in different places.

How the values were obtained:
[1] = prior art form of WO 03/016305; cited from earlier work
[2] = prior art form of WO 03/016305; cited from earlier work; remark: listed apart in the source
[3] = Hygroscopicity of crystalline forms of sunitinib malate; assay type: physicochemical; conditions: crystalline solid form
[4] = Stability (thermodynamic / polymorphic) of crystalline forms of sunitinib malate; assay type: physicochemical; conditions: crystalline solid form

hygroscopicity [3] | stability [4] | Compound | hygroscopicity [1] | polymorphic conversion [2] | thermodynamic stability [2]
– | – | CCN(CC)CCNC(=O)c1c(C)[nH]c(/C=C2\C(=O)Nc3ccc(F)cc32)c1C.O=C(O)CC(O)C(=O)O [Form II, (Z)—N-[2-(diethylamino)ethyl]-5-(5-fluoro-2-oxo-2,3-dihydro-1H-indole-3-ylidenemethyl)-2,4-dimethyl-1H-pyrrole-3-carboxamide 2(S)-hydroxybutanedioic acid] | hygroscopic | readily convert to form I | thermodynamically unstable
non-hygroscopic | stable | CCN(CC)CCNC(=O)c1c(C)[nH]c(/C=C2\C(=O)Nc3ccc(F)cc32)c1C.O=C(O)CC(O)C(=O)O [form III, (Z)—N-[2-(diethylamino)ethyl]-5-(5-fluoro-2-oxo-2,3-dihydro-1H-indole-3-ylidenemethyl)-2,4-dimethyl-1H-pyrrole-3-carboxamide 2(S)-hydroxybutanedioic acid] | – | – | –
